# Reference: US10501479B2, “Benzenesulfonyl-asymmetric ureas and medical uses thereof” (HELSINN HEALTHCARE SA, priority 2016, dated 2019)
# Read-outs that look alike come from different tables or passages of the source.
# Experiments:
# Assay type in all cases: cell-based
# [1] = target: T1, recombinant human ghrelin receptor (HEK293/GRLN) (Homo sapiens, UniProt Q92847); assay: Ghrelin inverse agonist potency (EC50) with IP-1 (IP-One HTRF) assay; settings: IP-1 assay
# T1 construct: expressed in transfected cells
# Summary of the method: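 IP-1 accumulation was measured by HTRF (IP1-d2/Tb-cryptate, 620/665 nm read after 1 hour at room temperature) following 1 hour of compound treatment at 37° C. Cells were HEK293 stably expressing human ghrelin receptor, plated a day earlier on Matrigel. Inverse agonist potency was reported as EC50.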
# [2] = target: T2, GHSR-1a (HEK293/GHSR1a cell line) (Homo sapiens, UniProt Q92847); assay: Ghrelin agonist potency (EC50) with calcium FLIPR assay
# T2 construct: expressed in transfected cells; host or cells: HEK293/GHSR1a cell line
# Protocol: Evaluation of Ghrelin Agonist (EC50) and Antagonist Potency (IC50) with Calcium FLIPR Assay:
# The intracellular calcium assay was carried out in a 384-well format FLIPR™ (Molecular Device) HEK293/GHSR1a cell line. Cells were seeded 24 hr prior to the experiments at an optimal density per well. Preincubation with selected calcium dye lasted for 30-60 min at room temperature or 37° C. Test compounds, dissolved in DMSO, were added at the appropriate time and incubated for 15 min followed by the addition of ghrelin with FlexStation or FLIPR. Relative fluorescence was monitored by the FLIPR™ Molecular Device. EC50 and IC50 values were estimated from dose-response data using GraphPad Prism software. To check for GHSR-1a agonism, the compound was added at t=20 sec. and the calcium response was followed for 2 minutes. To check for GHSR-1a antagonism, the compound and Ghrelin (10 nM) were added to the cells at t=20 sec. and the calcium response was measured for 2 minutes. The potency of the antagonist was calculated by its ability to reduce the ghrelin response. Dose-response curves were made for relevant antagonists.
# [3] = target: T2, GHSR-1a (HEK293/GHSR1a cell line); assay: Ghrelin antagonist potency (IC50) with calcium FLIPR assay, ghrelin 10 nM
# Summary of the method: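 Fluorescence read-out of intracellular calcium over 2 min. Agonist EC50 came from compound added alone at t=20 sec. Antagonist IC50 came from the reduction of the response to 10 nM ghrelin co-added with compound at t=20 sec. Both were fitted from dose-response data.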
# [4] = HEK293/GRLN, read-out: Activity EC50 (ghrelin inverse agonist potency)
# [5] = HEK293/GHSR1a, read-out: Activity EC50/EMax: EC50 (ghrelin agonist potency)
# [6] = HEK293/GHSR1a, ghrelin 10 nM, read-out: Activity IC50 (ghrelin antagonist potency)
# [7] = ghrelin inverse agonist potency, read-out: Activity EC50
# [8] = ghrelin agonist potency, read-out: Activity EC50/EMax
# [9] = ghrelin antagonist potency, read-out: Activity IC50
# T2 sequence (Q92847 whole entry): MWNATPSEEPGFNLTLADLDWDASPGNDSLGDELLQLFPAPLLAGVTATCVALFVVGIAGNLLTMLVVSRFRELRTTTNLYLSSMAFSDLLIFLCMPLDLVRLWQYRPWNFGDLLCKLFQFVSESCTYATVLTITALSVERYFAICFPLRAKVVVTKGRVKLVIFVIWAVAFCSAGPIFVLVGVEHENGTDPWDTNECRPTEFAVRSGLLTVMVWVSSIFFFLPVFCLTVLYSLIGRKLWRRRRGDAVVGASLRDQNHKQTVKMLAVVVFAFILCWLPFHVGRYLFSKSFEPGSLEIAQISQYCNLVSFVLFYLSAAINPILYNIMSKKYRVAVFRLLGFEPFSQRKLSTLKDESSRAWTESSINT
# T1 sequence (Q92847 whole entry): as above
SMILES,"EC50 [1, 4] [nM]","EC50 [2, 5] [nM]","IC50 [3, 6] [nM]",other results
"CN1Cc2ccc(CS(=O)(=O)c3ccc(NC(=O)NC4COc5ccccc54)cc3)cc2C1 (stereo not shown) [H1331, 1-(2,3-dihydrobenzofuran-3-yl)-3-(4-(((2-methylisoindolin-5-yl)methyl)sulfonyl)phenyl)urea]",130,> 30000,213,
"CC(NC(=O)N(O)c1ccc(S(=O)(=O)Cc2ccc3c(c2)CNC3)cc1)c1ccccc1 (stereo not shown) [H1473, 1-hydroxy-1-(4-((isoindolin-5-ylmethyl)sulfonyl)phenyl)-3-(1-phenylethyl)urea]",,,,"EC50 [1, 7]: 515 nM; EC50 [2, 8]: > 30000 nM; IC50 [3, 9]: 2240 nM"
"C[C@H](NC(=O)Nc1ccc(S(=O)(=O)Nc2ccc3[nH]cnc3c2)cc1)c1cccc(Cl)c1Cl [H1111, (S)-N-(1H-benzo[d]imidazol-5-yl)-4-(3-(1-(2,3-dichlorophenyl)ethyl)ureido) benzenesulfonamide]",,,,"EC50 ([1]; inverse agonist potency, read-out: EC50 (Activity)): 1230 nM; EC50/EMax: EC50 (Activity) ([2]; ghrelin agonist potency): > 30000 nM; IC50 ([3]; ghrelin antagonist potency, read-out: IC50 (Activity)): 2250 nM"
"CN1Cc2ccc(CS(=O)(=O)c3ccc(NC(=O)N[C@H]4CCCc5ccccc54)cc3)cc2C1 [H1335, (S)-1-(4-(((2-methylisoindolin-5-yl)methyl)sulfonyl)phenyl)-3-(1,2,3,4-tetrahydronaphthalen-1-yl)urea]",69.9,> 30000,133,
"CC(NC(=O)Nc1ccc(C(=O)Nc2ccc3c(c2)CNC3)cc1)c1ccccc1 (stereo not shown) [H1479, N-(isoindolin-5-yl)-4-(3-(1-phenylethyl)ureido)benzamide]",,,,"EC50 [1, 7]: 1950 nM; EC50 [2, 8]: > 30000 nM; IC50 [3, 9]: 2500 nM"
"CC(NC(=O)Nc1ccc(S(=O)(=O)Cc2ccc3c(c2)C(F)(F)CNC3)cc1)c1cccc(Cl)c1Cl (stereo not shown) [H1547, 1-(1-(2,3-dichlorophenyl)ethyl)-3-(4-(((4,4-difluoro-1,2,3,4-tetrahydroisoquinolin-6-yl)methyl)sulfonyl)phenyl)urea]",,,,"EC50 [1, 7]: 35 nM; EC50 [2, 8]: > 30000 nM; IC50 [3, 9]: 456 nM"
"CN1Cc2ccc(CS(=O)(=O)c3ccc(NC(=O)N[C@@H]4CCCc5ccccc54)cc3)cc2C1 [H1336, (R)-1-(4-(((2-methylisoindolin-5-yl)methyl)sulfonyl)phenyl)-3-(1,2,3,4-tetrahydronaphthalen-1-yl)urea]",263,> 30000,381,
"C[C@@H](NC(=O)Nc1ccc(S(=O)(=O)Cc2cc3c(s2)CN(C)C3)cc1)c1ccccc1 [H1348, (R)-1-(4-(((5-methyl-5,6-dihydro-4H-thieno[2,3-c]pyrrol-2-yl)methyl)sulfonyl)phenyl)-3-(1-phenylethyl)urea]",19.9,> 30000,65,
"CC1Cc2cc(CS(=O)(=O)c3ccc(NC(=O)N(C)Cc4ccccc4)cc3)ccc2CN1 (stereo not shown) [H1416, 1-benzyl-1-methyl-3-(4-(((3-methyl-1,2,3,4-tetrahydroisoquinolin-6-yl)methyl)sulfonyl)phenyl)urea]",26.6,> 30000,1040,
"CC(NC(=O)Nc1ccc(S(=O)(=O)Cc2ccc3c(c2)CN(C)C3)cc1)c1cncnc1 (stereo not shown) [H1309, 1-(4-(((2-methylisoindolin-5-yl)methyl)sulfonyl)phenyl)-3-(1-(pyrimidin-5-yl)ethyl)urea]",1840,> 30000,4500,
"COc1cc(S(=O)(=O)Cc2ccc(CO)cc2)ccc1NC(=O)NC(C)c1ccccc1 (stereo not shown) [H1433, 1-(4-((4-(hydroxymethyl)benzyl)sulfonyl)-2-methoxyphenyl)-3-(1-phenylethyl)urea]",473,> 30000,3120,
"CC(NC(=O)Nc1ccc(S(=O)(=O)Cc2ccc3c(c2)CN(CC2CCCO2)C3)cc1)c1ccccc1 (stereo not shown) [H1341, 1-(1-phenylethyl)-3-(4-(((2-((tetrahydrofuran-2-yl)methyl)isoindolin-5-yl)methyl)sulfonyl)phenyl)urea]",20.9,> 30000,69.7,
"CC(NC(=O)Nc1ccc(C(=O)Nc2ccc3c(c2)CN(C)C3)cc1)c1ccccc1 (stereo not shown) [H1480, N-(2-methylisoindolin-5-yl)-4-(3-(1-phenylethyl)ureido)benzamide]",,,,"EC50 [1, 7]: > 10000 nM; EC50 [2, 8]: > 30000 nM; IC50 [3, 9]: 24200 nM"
"CC(NC(=O)Nc1ccc(S(=O)(=O)CC2=CCC3CCC2N3C(C)C)cc1)c1cccc(Cl)c1Cl (stereo not shown) [H1514, 1-(1-(2,3-dichlorophenyl)ethyl)-3-(4-(((8-isopropyl-8-azabicyclo[3.2.1]oct-2-en-2-yl)methyl)sulfonyl)phenyl)urea]",,,,"EC50 [1, 7]: 17.6 nM; EC50 [2, 8]: > 30000 nM; IC50 [3, 9]: 16200 nM"
"CN1Cc2ccc(CS(=O)(=O)c3ccc(NC(=O)N(O)Cc4ccccc4)cc3)cc2C1 [H1503, 1-benzyl-1-hydroxy-3-(4-(((2-methylisoindolin-5-yl)methyl)sulfonyl)phenyl)urea]",,,,"EC50 [1, 7]: 101 nM; EC50 [2, 8]: > 30000 nM; IC50 [3, 9]: 512 nM"
"CCc1ccc(Cl)c(C(=O)NC(=O)Nc2ccc(S(=O)(=O)Nc3ccc4c(c3)CNC4)cc2)c1 [H1259, 2-chloro-5-ethyl-N-((4-(N-(isoindolin-5-yl)sulfamoyl)phenyl)carbamoyl) benzamide]",,> 30000,272,
"CC1Cc2cc(CS(=O)(=O)c3ccc(NC(=O)N(C)C(C)c4cccc(Cl)c4Cl)c(F)c3)ccc2CN1 (stereo not shown) [H1402, 1-(1-(2,3-dichlorophenyl)ethyl)-3-(2-fluoro-4-(((3-methyl-1,2,3,4-tetrahydroisoquinolin-6-yl)methyl)sulfonyl)phenyl)-1-methylurea]",,> 30000,75,
"CC(NC(=O)Nc1ccc(S(=O)(=O)Cc2cccc(CN3CCCC3)c2)cc1)c1ccccc1 (stereo not shown) [H1318, 1-(1-phenylethyl)-3-(4-((3-(pyrrolidin-1-ylmethyl)benzyl)sulfonyl)phenyl)urea]",,> 30000,5310,
"C[C@H](NC(=O)Nc1ccc(S(=O)(=O)Cc2ccc3c(c2)C2CCC3N2C)cc1)c1ccccc1 (stereo partly drawn) [H1325, 1-(4-(((9-methyl-1,2,3,4-tetrahydro-1,4-epiminonaphthalen-6-yl)methyl)sulfonyl)phenyl)-3-((S)-1-phenylethyl)urea]",,> 30000,3830,
"CC(NC(=O)Nc1ccc(S(=O)(=O)CC2CCCN(CC3CCCO3)C2)cc1)c1cccc(Cl)c1Cl (stereo not shown) [H1375, 1-(1-(2,3-dichlorophenyl)ethyl)-3-(4-(((1-((tetrahydrofuran-2-yl)methyl)piperidin-3-yl)methyl)sulfonyl)phenyl)urea]",,> 30000,> 30000,
"CC(NC(=O)Nc1ccc(S(=O)(=O)Cc2ccc3c(c2)C(N2CCCC2)CC3)cc1)c1ccccc1 (stereo not shown) [H1294, 1-(1-phenylethyl)-3-(4-(((3-(pyrrolidin-1-yl)-2,3-dihydro-1H-inden-5-yl)methyl)sulfonyl)phenyl)urea]",,12900,3320,
"CC(NC(=O)Nc1ccc(S(=O)(=O)Cc2ccc3c(c2)CNC3=O)cc1)c1ccccc1 (stereo not shown) [H1292, 1-(4-(((1-oxoisoindolin-5-yl)methyl)sulfonyl)phenyl)-3-(1-phenylethyl)urea]",,> 30000,> 30000,
"C[C@H](NC(=O)Nc1ccc(S(=O)(=O)Nc2ccc3c(c2)CCN(C)C3)cc1)c1ccccc1 [H1315, (S)-N-(2-methyl-1,2,3,4-tetrahydroisoquinolin-6-yl)-4-(3-(1-phenylethyl)ureido) benzenesulfonamide]",,> 30000,301,
